Three molecules from patent US4224316A, “Synthetic peptides having pituitary growth hormone releasing activity” (Beckman Instruments, Inc., priority 1979, dated 1980) can be followed below.

SMILES strings stand for the structures. Square brackets hold non-standard residues; d marks the D form. Peptide text beside a SMILES is read from it.

The subject of this assay is pituitaries removed from 20 day old female rats. The assay is described as follows: In vitro growth hormone release study (incubated rat pituitaries, GH radioimmunoassay of the medium). In kind it is cell-based. Particulars: mean ± SEM, two pituitaries in 1 ml lactated Ringer's solution, 36° C., peptide added hourly for 2 hours. How it is done:
Female rats of the CD-l strain were housed in a constant temperature room at 24° C. with 14 hours light and 10 hours darkness. The rats were fed Purina brand rat chow ab libitum.
All studies were started between 0800 and 1000 hours.
Pituitaries were removed from 20 day old female rats. Two pituitaries were incubated at 36° C. in 1 ml of lactated Ringer's solution in 10 ml polytetrafluoroethylene beakers in a Dubnoff Shaker (90 cycles/min.). The pituitaries were incubated a total of 4 hours (P1, P2, I3, and I4). After two successive one hour preincubation periods (P1, P2), the peptide was added to the incubation medium hourly for 2 hours (I3, I4).
This in vitro study was performed in triplicate and a standard radioimmunoassay of growth hormone present in the incubation medium was performed in duplicate. The hormonal activity was calculated as the difference (Δ) of growth hormone (GH) levels between I3, I4 and P2, i.e., (I3 -P2) and (I4 -P2). P values were calculated by Students' t test using six growth hormone values for each value recorded.
The growth hormone radioimmunoassay reagents were distributed by the National Institute of Arthritis and […] (NIAMDD) program. The growth hormone values were calculated in terms of nanograms (ng) of a rat standard with a growth hormone potency of 0.61 units/mg.

`CSCC[C@H](NC(=O)[C@H](Cc1ccccc1)NC(=O)[C@@H](Cc1ccccc1)NC(=O)[C@H](Cc1c[nH]c2ccccc12)NC(=O)[C@H](N)Cc1ccccc1)C(N)=O` [H2 N-D-Phe-Trp-D-Phe-Phe-Met-CONH2] (H-[dF]W[dF]FM-NH2): the “In vitro growth hormone release (ΔGH between I3, I4 and P2)” value runs as follows: (10μg peptide) 1469 ± 153 ng.increment.GH/ml incubation; (100μg peptide) 1483 ± 168 ng.increment.GH/ml incubation.

Consider `CSCC[C@H](NC(=O)[C@H](Cc1ccccc1)NC(=O)[C@@H](Cc1c[nH]c2ccccc12)NC(=O)[C@H](Cc1ccccc1)NC(=O)[C@H](N)Cc1ccccc1)C(N)=O` [H2 N-D-Phe-Phe-D-Trp-Phe-Met-CONH2] (H-[dF]F[dW]FM-NH2), for which the “In vitro growth hormone release (ΔGH between I3, I4 and P2)” value is 130 ± 143 ng.increment.GH/ml incubation (1μg peptide), 955 ± 248 ng.increment.GH/ml incubation (10μg peptide) and 1060 ± 469 ng.increment.GH/ml incubation (100μg peptide).

As to `NCCCC[C@H](NC(=O)[C@H](Cc1ccccc1)NC(=O)[C@@H](Cc1ccccc1)NC(=O)[C@H](Cc1c[nH]c2ccccc12)NC(=O)[C@H](N)Cc1ccccc1)C(N)=O` [H2 N-D-Phe-Trp-D-Phe-Phe-Lys-CONH2] (H-[dF]W[dF]FK-NH2), the “In vitro growth hormone release (ΔGH between I3, I4 and P2)” value (1μg peptide) is recorded as -109 ± 101 ng.increment.GH/ml incubation; the “In vitro growth hormone release (ΔGH between I3, I4 and P2)” value (10μg peptide) is listed as 888 ± 120 ng.increment.GH/ml incubation; the “In vitro growth hormone release (ΔGH between I3, I4 and P2)” value (100μg peptide) is recorded as 963 ± 96 ng.increment.GH/ml incubation.
